Source: US8389512B2 (priority 2008, dated 2013)

What was measured:
[1] = 24 hr in-vivo study: meloxicam plasma concentration and pharmacokinetics after oral (gavage) administration to male rats; conditions: for meloxicam plasma concentration / AUC (area under the plasma concentration-time curve at 24 h) / Cmax (peak plasma concentration) / F (bioavailability) / Time to Reach 0.59 μg/ml: male rats, 1 mg/kg oral; for AUC (area under the plasma concentration-time curve at 24 h) / Cmax (peak plasma concentration) / F (bioavailability): mean N = 5; for Time to Reach 0.59 μg/ml: calculated by interpolation of time vs. concentration data
Text: Male Sprague-Dawley rats, 250-300 g, received with a surgically implanted jugular catheter in place from (Harlan or Taconic Laboratories, USA). Animals were housed one per polycarbonate cage utilizing individual cage cards, with free access to food and water in accordance with NIH guidelines. Animals were quarantined at least 24 hrs after arrival prior to use and patency of the implanted catheter determined on the day of the test. Environmental controls for the animal room were set to maintain 18 to 26° C., a relative humidity of 30 to 70%, a minimum of 10 air changes/hour, and a 12-hour light/12-hour dark cycle. Rats historically have been used in safety evaluation and PK screening studies and are recommended by appropriate regulatory agencies. […] Each rat was weighed and the dose volume adjusted accordingly so that the effect of weight variability on results of study was eliminated and that each rat received 1 mg/kg dose.
(§1) Pharmacokinetic parameters were calculated from individual animal samples using appropriate software (PK Solutions 2.0, Summit Research Services, Montrose, Calif., USA).

[2] = 4 hr in-vivo study: meloxicam plasma concentration after oral delivery to rats; conditions: rat
Text: Male Sprague-Dawley rats, 250-300 g, received with a surgically implanted jugular catheter in place from (Harlan or Taconic Laboratories, USA). Animals were housed one per polycarbonate cage utilizing individual cage cards, with free access to food and water in accordance with NIH guidelines. Animals were quarantined at least 24 hrs after arrival prior to use and patency of the implanted catheter determined on the day of the test. Environmental controls for the animal room were set to maintain 18 to 26° C., a relative humidity of 30 to 70%, a minimum of 10 air changes/hour, and a 12-hour light/12-hour dark cycle. […] Each rat was weighed and the dose volume adjusted accordingly so that the effect of weight variability on results of study was eliminated and that each rat received 1 mg/kg dose.
Briefly, using a gradient elution with a Waters Symmetry C18 column (Waters Inc. USA), LCMS with selective reaction monitoring, protein precipitation of the plasma sample using acetonitrile where an LOQ of 50 ng/ml was achieved. Pharmacokinetic parameters were calculated from individual animal samples using appropriate software (PK Solutions 2.0, Summit Research Services, Montrose, Calif., USA).

[3] = cited from earlier work
[4] = IV comparator group, meloxicam pharmacokinetics in rats; assay type: in vivo; conditions: Sprague-Dawley, rat, plasma, 1 mg/kg, PEG400:DMSO formulation
Procedure: In addition, IV comparator group of 5 rats was used to calculate MAT (mean absorption time) and ka (absorption rate constant) parameters since such parameters cannot be determined for the oral groups.
200 micro liters of blood withdrawn from the indwelling intravenous catheter at 5 minutes, 15 minutes, 30 minutes, 45 minutes, 1, 2, 4, 8, 12 and 24 hours to provide sufficient amount of serum for analysis.
as §1

[5] = Accelerated stability testing of cocrystals (PXRD, FTIR); conditions: 2 months at 40° C.
[6] = male, Sprague-Dawley, rat, plasma, po, 1 mg/kg

**Q.** Which meloxicam plasma concentration ([1]; N = 5, 0.25 hour) does the source give for `Cc1cnc(NC(=O)C2=C(O)c3ccccc3S(=O)(=O)N2C)s1.O=C(O)/C=C\C(=O)O` [Cocrystal 21, Meloxicam:Maleic Acid Cocrystal (1:1)] here?
**A.** 0.62 µg/mL

**Q.** What about the meloxicam plasma concentration ([1]; N = 5, 0.5 hour) of the same molecule?
**A.** 0.72 µg/mL

**Q.** And the “AUC (area under the plasma concentration-time curve at 24 h)” value [1]?
**A.** 25300 ng·h/mL

**Q.** What about the “Cmax (peak plasma concentration)” value [1] of the same molecule?
**A.** 1490 ng/mL

**Q.** What about the “F (bioavailability)” value [1] of the same molecule?
**A.** 39.8%

**Q.** And the “Time to Reach 0.59 μg/ml” value [1]?
**A.** 13.4 min

**Q.** And the meloxicam plasma concentration ([2]; time 0 min)?
**A.** 0.3 µg/mL

**Q.** What about the meloxicam plasma concentration ([2]; time 15 min) of the same molecule?
**A.** 19.77 µg/mL

**Q.** What about the meloxicam plasma concentration ([2]; time 30 min) of the same molecule?
**A.** 26.13 µg/mL

**Q.** And the meloxicam plasma concentration ([2]; time 45 min)?
**A.** 31.19 µg/mL

**Q.** And the meloxicam plasma concentration ([2]; time 60 min)?
**A.** 32.84 µg/mL

**Q.** What about the meloxicam plasma concentration ([2]; time 120 min) of the same molecule?
**A.** 35.02 µg/mL

**Q.** And the meloxicam plasma concentration ([2]; time 240 min)?
**A.** 42.12 µg/mL

**Q.** Which meloxicam plasma concentration ([1]; N = 5, 0.25 hour) does the source give for `Cc1cnc(NC(=O)C2=C(O)c3ccccc3S(=O)(=O)N2C)s1.O=C(O)c1ccc2ccccc2c1O` [Cocrystal 76, Meloxicam: 1-Hydroxy-2-Naphthoic Acid Cocrystal (1:1)] here?
**A.** 2.1 µg/mL

**Q.** What about the meloxicam plasma concentration ([1]; N = 5, 0.5 hour) of the same molecule?
**A.** 2.49 µg/mL

**Q.** And the “AUC (area under the plasma concentration-time curve at 24 h)” value [1]?
**A.** 62500 ng·h/mL

**Q.** What about the “Cmax (peak plasma concentration)” value [1] of the same molecule?
**A.** 4150 ng/mL

**Q.** What about the “F (bioavailability)” value [1] of the same molecule?
**A.** 98.3%

**Q.** And the “Time to Reach 0.59 μg/ml” value [1]?
**A.** 6.5 min

**Q.** And the meloxicam plasma concentration ([2]; time 0 min)?
**A.** 0 µg/mL

**Q.** What about the meloxicam plasma concentration ([2]; time 30 min) of the same molecule?
**A.** 39.24 µg/mL

**Q.** What about the meloxicam plasma concentration ([2]; time 45 min) of the same molecule?
**A.** 45.29 µg/mL

**Q.** What about the meloxicam plasma concentration ([2]; time 60 min) of the same molecule?
**A.** 44.60 µg/mL

**Q.** What about the meloxicam plasma concentration ([2]; time 120 min) of the same molecule?
**A.** 46.24 µg/mL

**Q.** What about the meloxicam plasma concentration ([2]; time 240 min) of the same molecule?
**A.** 52.24 µg/mL

**Q.** For `Cc1cnc(NC(=O)C2=C(O)c3ccccc3S(=O)(=O)N2C)s1.O=C(O)c1ccccc1O` [Cocrystal 88, Meloxicam:Salicylic Acid Cocrystal Form III (1:1)], which meloxicam plasma concentration ([1]; N = 5, 0.25 hour) is on record?
**A.** 0.7675 µg/mL

**Q.** What about the meloxicam plasma concentration ([1]; N = 5, 0.5 hour) of the same molecule?
**A.** 0.8975 µg/mL

**Q.** What about the “AUC (area under the plasma concentration-time curve at 24 h)” value [1] of the same molecule?
**A.** 29600 ng·h/mL

**Q.** What about the “Cmax (peak plasma concentration)” value [1] of the same molecule?
**A.** 2230 ng/mL

**Q.** What about the “F (bioavailability)” value [1] of the same molecule?
**A.** 46.5%

**Q.** And the “Time to Reach 0.59 μg/ml” value [1]?
**A.** 11.3 min

**Q.** What about the meloxicam plasma concentration ([2]; time 15 min) of the same molecule?
**A.** 42.10 µg/mL

**Q.** And the meloxicam plasma concentration ([2]; time 30 min)?
**A.** 38.19 µg/mL

**Q.** What about the meloxicam plasma concentration ([2]; time 45 min) of the same molecule?
**A.** 40.48 µg/mL

**Q.** And the meloxicam plasma concentration ([2]; time 60 min)?
**A.** 41.18 µg/mL

**Q.** What about the meloxicam plasma concentration ([2]; time 120 min) of the same molecule?
**A.** 40.50 µg/mL

**Q.** And the meloxicam plasma concentration ([2]; time 240 min)?
**A.** 49.13 µg/mL

**Q.** With `Cc1cnc(NC(=O)C2=C(O)c3ccccc3S(=O)(=O)N2C)s1.Cc1cnc(NC(=O)C2=C(O)c3ccccc3S(=O)(=O)N2C)s1.O=C(O)CCC(=O)O` [Cocrystal 144, Meloxicam:Succinic Acid Cocrystal (2:1)] as the molecule, how does the meloxicam plasma concentration ([1]; N = 5, 0.25 hour) read?
**A.** 0.23 µg/mL

**Q.** What about the “AUC (area under the plasma concentration-time curve at 24 h)” value [1] of the same molecule?
**A.** 28400 ng·h/mL

**Q.** What about the “Cmax (peak plasma concentration)” value [1] of the same molecule?
**A.** 1780 ng/mL

**Q.** And the “F (bioavailability)” value [1]?
**A.** 44.7%

**Q.** And the “Time to Reach 0.59 μg/ml” value [1]?
**A.** 45.1 min

**Q.** What about the meloxicam plasma concentration ([2]; time 0 min) of the same molecule?
**A.** 0 µg/mL

**Q.** What about the meloxicam plasma concentration ([2]; time 15 min) of the same molecule?
**A.** 13.76 µg/mL

**Q.** What about the meloxicam plasma concentration ([2]; time 45 min) of the same molecule?
**A.** 32.54 µg/mL

**Q.** What about the meloxicam plasma concentration ([2]; time 60 min) of the same molecule?
**A.** 38.13 µg/mL

**Q.** What about the meloxicam plasma concentration ([2]; time 120 min) of the same molecule?
**A.** 44.02 µg/mL

**Q.** What about the meloxicam plasma concentration ([2]; time 240 min) of the same molecule?
**A.** 43.47 µg/mL

**Q.** What does the source list for `Cc1cnc(NC(=O)C2=C(O)c3ccccc3S(=O)(=O)N2C)s1.Cc1cnc(NC(=O)C2=C(O)c3ccccc3S(=O)(=O)N2C)s1.O=C(O)CC(O)C(=O)O` [Cocrystal 154, Meloxicam:DL-Malic Acid Cocrystal (2:1)]?
**A.** meloxicam plasma concentration ([2]; time 0 min): 0 µg/mL; meloxicam plasma concentration ([2]; time 15 min): 11.19 µg/mL; meloxicam plasma concentration ([2]; time 30 min): 16.59 µg/mL; meloxicam plasma concentration ([2]; time 45 min): 21.96 µg/mL; meloxicam plasma concentration ([2]; time 60 min): 24.90 µg/mL; meloxicam plasma concentration ([2]; time 120 min): 32.31 µg/mL; meloxicam plasma concentration ([2]; time 240 min): 49.72 µg/mL

**Q.** What does the source list for `Cc1cnc(NC(=O)C2=C(O)c3ccccc3S(=O)(=O)N2C)s1.O=C(O)CCc1ccccc1` [Cocrystal 164, Meloxicam:Hydrocinnamic Acid Cocrystal (1:1)]?
**A.** meloxicam plasma concentration ([2]; time 0 min): 0 µg/mL; meloxicam plasma concentration ([2]; time 15 min): 9.53 µg/mL; meloxicam plasma concentration ([2]; time 30 min): 11.42 µg/mL; meloxicam plasma concentration ([2]; time 45 min): 16.19 µg/mL; meloxicam plasma concentration ([2]; time 60 min): 18.24 µg/mL; meloxicam plasma concentration ([2]; time 120 min): 25.918 µg/mL; meloxicam plasma concentration ([2]; time 240 min): 45.70 µg/mL

**Q.** Which results are given for `Cc1cnc(NC(=O)C2=C(O)c3ccccc3S(=O)(=O)N2C)s1` [Meloxicam, (8E)-8-[hydroxy-[(5-methyl-1,3-thiazol-2-yl)amino]methylidene]-9-methyl-10,10-dioxo-10λ^6-thia-9-azabicyclo[4.4.0]deca-1,3,5-trien-7-one, reference compound]?
**A.** solubility in methanol ([3]; methanol): very slightly soluble; solubility in strong acids and bases ([3]; strong acids and bases, compared with water): higher solubility; solubility in water ([3]; water): practically insoluble; Time to Reach 0.59 μg/ml [1]: 270.0 min; AUC [1, 6]: 10000 ng·h/mL; Cmax [1, 6]: 590 ng/mL; MRT [1, 6]: 21.8 h; bioavailability [1, 6]: 15.7%; concentration at 0.0833 hour [1, 6]: 20 ng/mL; concentration at 0.25 hour [1, 6]: 190 ng/mL; concentration at 0.5 hour [1, 6]: 280 ng/mL; concentration at 0.75 hour [1, 6]: 320 ng/mL; concentration at 1 hour [1, 6]: 390 ng/mL; concentration at 2 hour [1, 6]: 510 ng/mL; concentration at 4 hour [1, 6]: 540 ng/mL; concentration at 8 hour [1, 6]: 530 ng/mL; concentration at 12 hour [1, 6]: 460 ng/mL; concentration at 24 hour [1, 6]: 240 ng/mL; AUC ([4]; read-out: AUC (area under the plasma concentration-time curve at 24 h)): 63600 ng·h/mL; MRT ([4]; read-out: MRT (mean residence time)): 14.7 h; concentration at 0 min ([2]; male, Sprague-Dawley, plasma, 1 mg/kg, time 0 min): 0 ng/mL; concentration at 15 min ([2]; male, Sprague-Dawley, plasma, 1 mg/kg, time 15 min): 8190 ng/mL; concentration at 30 min ([2]; male, Sprague-Dawley, plasma, 1 mg/kg, time 30 min): 14800 ng/mL; concentration at 45 min ([2]; male, Sprague-Dawley, plasma, 1 mg/kg, time 45 min): 19600 ng/mL; concentration at 60 min ([2]; male, Sprague-Dawley, plasma, 1 mg/kg, time 60 min): 24000 ng/mL; concentration at 120 min ([2]; male, Sprague-Dawley, plasma, 1 mg/kg, time 120 min): 30200 ng/mL; concentration at 240 min ([2]; male, Sprague-Dawley, plasma, 1 mg/kg, time 240 min): 39400 ng/mL

**Q.** Which results are given for “Meloxicam:Aspirin Cocrystal (1:1) [Cocrystal 73]”?
**A.** meloxicam plasma concentration ([1]; N = 5, 0.0833 hour): 0.13 µg/mL; meloxicam plasma concentration ([1]; N = 5, 0.25 hour): 0.87 µg/mL; meloxicam plasma concentration ([1]; N = 5, 0.5 hour): 1.14 µg/mL; meloxicam plasma concentration ([1]; N = 5, 0.75 hour): 1.37 µg/mL; meloxicam plasma concentration ([1]; N = 5, 1 hour): 1.74 µg/mL; meloxicam plasma concentration ([1]; N = 5, 2 hour): 2.49 µg/mL; meloxicam plasma concentration ([1]; N = 5, 4 hour): 2.51 µg/mL; meloxicam plasma concentration ([1]; N = 5, 8 hour): 2.34 µg/mL; meloxicam plasma concentration ([1]; N = 5, 12 hour): 1.83 µg/mL; meloxicam plasma concentration ([1]; N = 5, 24 hour): 1.16 µg/mL; AUC (area under the plasma concentration-time curve at 24 h) [1]: 44100 ng·h/mL; Cmax (peak plasma concentration) [1]: 2700 ng/mL; F (bioavailability) [1]: 69.4%; Time to Reach 0.59 μg/ml [1]: 10.6 min; Stability in accelerated stability testing (PXRD profiles) ([5]; 75% RH open and closed vials, and 6 months at 40° C. open vial): stable for 6 months; Stability in accelerated stability testing (FTIR profiles) ([5]; 75% RH, vials open or closed): stable for 2 months; meloxicam plasma concentration ([2]; time 0 min): 0 µg/mL; meloxicam plasma concentration ([2]; time 15 min): 26.94 µg/mL; meloxicam plasma concentration ([2]; time 30 min): 42.67 µg/mL; meloxicam plasma concentration ([2]; time 45 min): 50.18 µg/mL; meloxicam plasma concentration ([2]; time 60 min): 52.67 µg/mL; meloxicam plasma concentration ([2]; time 120 min): 59.23 µg/mL; meloxicam plasma concentration ([2]; time 240 min): 60.85 µg/mL
